The source of these data is PMC12418703, “Avenanthramides and avenacosides as biomarkers of oat intake: a pharmacokinetic study of solid and liquid oat consumption under single and repeated dose conditions” (Nutrition Journal, 2025).

SMILES strings stand for the structures. Like-named read-outs stand apart in the source and are kept apart here.

Details of data set [1]: method as in PMID 39491249. Conditions: in the presence of starch; cited from earlier work.
Details of data set [2]: method as in PMID 30977921. The note with it: cited from earlier work.
The test system of data set [3] is Feacalibacterium prausnitzii. In words: Association of F. prausnitzii relative abundance at baseline with Cmax and AUC strata (logistic regression). On the set-up: species or system humans. The note with it: liquid, solid, or combined; single dose phase I. As for the experimental part:
DNA was extracted from approximately 35 mg of each of the 451 fecal samples using the NucleoSpin Soil kit (Macherey-Nagel, 740780.250 M), following the manufacturer’s instructions. DNA yield was quantified using the Qubit 1X dsDNA Broad Range assay kit (Thermo Fisher Scientific, Q33266). For metagenomic shotgun sequencing, libraries were prepared with the MGIEasy Fast FS DNA Library Prep Set (MGI Tech Co., Ltd., 940-000030-00, Werheim, Germany), using 400 ng of DNA per sample. The library preparation process included DNA shearing for 12.5 min, followed by end repair, A-tailing, and magnetic bead-based cleanup. Adapter ligation and cleanup were then performed, followed by PCR amplification and magnetic bead-based size selection of the final library product. Library quality was assessed using the Qubit 1X dsDNA HS Assay Kit (Thermo Fisher Scientific, Q33231) and the Agilent High Sensitivity D1000 Assay Kit (Agilent Technologies, 5067–5584 and 5067–5585, Santa Clara, CA, USA). Pooled libraries were circularized, barcoded, and used as templates for DNA nanoball preparation. The nanoballs were then analyzed on the DNBSEQ-T7 platform (MGI Tech Co., Ltd.) using the DNBSEQ-T7RS High-throughput Sequencing Set (FCL PE150), according to the manufacturer’s guidelines.
Raw metagenomic reads underwent quality control to remove low-quality sequences, adapters, and contaminants using Fastp (version 0.23.2, default parameters). High-quality reads were filtered to exclude human reads (GRCh38_noalt_as) using Bowtie2 [38] (version 2.5.3). The quality-filtered reads were then aligned to the taxonomy database using MetaPhlAn (version 4.0.6, default parameters) to generate relative abundance profiles. For inclusion in the analysis, a species was required to be present in at least three samples.
For the seven metabolites AVE A, AVE B, AVA 2c, AVA 2f, AVA 2fd, AVA 2p, AVA 2pd analysed at phase I after the single dose of oat products, Cmax and area under the curve (AUC) were stratified based on less than the median or more or equal to the […]. Thereafter, for each metabolite, it was investigated whether the relative abundance of F. prausnitzii at baseline could predict the strata since this bacterium has previously been reported to be responsible for production of their dihydro-metabolites. Logistic regression with a binomial distribution and a logistic link function was used to separately analyze the liquid and solid products. When analyzing liquid and solid products together, a generalized linear mixed model with a binomial distribution and a logistic link function was used, with identity included as a random factor.

Where [4] appears, read: control samples (digestion without proteins).
[5] abbreviates: in the presence of whey protein.

With `O=C(/C=C/c1ccc(O)c(O)c1)Nc1ccc(O)cc1C(=O)O` [AVA 2c], the change of bioaccessibility entry in data set [1] was “increased”. In data set [2] (setting [4]), the “bioaccessibility, times lower compared to AVA 2f” value is listed as 3.9 times and the “bioaccessibility, times lower compared to AVA 2p” value was 4.6 times. For the same molecule, in data set [2] (setting [5]), the “bioaccessibility, times increase” value is 3.6 times. Moreover, the “association between F. prausnitzii abundance at baseline and Cmax and AUC” value in data set [3] was “no significant associations”.
As for `O=C(/C=C/c1ccc(O)cc1)Nc1ccc(O)cc1C(=O)O` [AVA 2p], the change of bioaccessibility result is “decreased” in data set [1] and “slight increase” in data set [2] (setting [5]). Besides, the “association between F. prausnitzii abundance at baseline and Cmax and AUC” value in data set [3] is “no significant associations”.
Turning to `COc1cc(/C=C/C(=O)Nc2ccc(O)cc2C(=O)O)ccc1O` [AVA 2f], the change of bioaccessibility result in data set [1] was “decreased”; in data set [2] (setting [5]) it was “slight increase”. Also, in data set [3], the “association between F. prausnitzii abundance at baseline and Cmax and AUC” value is given as “no significant associations”.
